Experimental data as given in patent publication US20160143913A1, “COMBINATION” (Novartis AG, priority 2009, published 2016).
Read-outs that look alike come from different tables or passages of the source.

Assays:
[1] = tested on: SW900; test: Cell growth inhibition assay (Cell Titer Glo), SW900; format: cell-based; details: Homo sapiens, 72 h; SW900 lung; KRAS_G12V; PIK3CA/PTEN WT; single agent, 3 days, mean ± std
Description: (§1) Human breast tumor line, MDA-MB-175-VII, human colon tumor lines, Colo-205, DLD-1, HCT-8, HT-29, LS-1034, NCI-H508, RKO, SW1417, SW1463, SW480, SW837 and T84, and human lung tumor lines, A427, A549, Calu 3, Calu 6, HCC827, NCI-H1155, NCI-H1355, NCI-H1792, NCI-H23, NCI-H727, SW1573 and SW900 were from ATCC. Human breast tumor line EFM-19 was from German Collection of Microorganisms and Cell Cultures. Human lung tumor line COR-L23 was from European Collection of Cell Cultures (UK). Human colon tumor line KM12 and human lung tumor line Hop62 were from National Cancer Institute. MV522 was from University of California at San Diego. All lines were cultured in RPMI 1640 medium containing 10% fetal bovine serum (FBS).
(§2) All cells were cultured for a minimum of 72 hours prior to cell plating. […] ATP levels were determined by adding Cell Titer Glo® (Promega) according to the manufacturer's protocol. Briefly, Cell Titer Glo® was added each plate, incubated for 30 minutes then luminescent signal was read on the SpectraMax L plate reader with a 0.5 sec integration time.
(§3) Inhibition of cell growth was estimated after treatment with compound or combination of compounds for three days and comparing the signal to cells treated with vehicle (DMSO). Cell growth was calculated relative to vehicle (DMSO) treated control wells. […]

[2] = tested on: T84; test: Cell growth inhibition assay (Cell Titer Glo), T84; format: cell-based; details: Homo sapiens, 72 h; T84 colon; KRAS_G13D; PrK3CA_E542K; single agent, 3 days, mean ± std
Description: as §1, §2, §3

[3] = tested on: EFM-19; test: Cell growth inhibition assay (Cell Titer Glo), EFM-19; format: cell-based; details: Homo sapiens, EFM-19, 72 h, EFM-19 breast; KRAS/RAF WT; PIK3CA_H1049L; single agent, 3 days, mean ± std
Description: as §1, §2, §3

[4] = tested on: A427; test: Cell growth inhibition assay (Cell Titer Glo), A427; format: cell-based; details: Homo sapiens, A-427, 72 h; A427 lung; KRAS_G12D; PIK3CA/PTEN WT; single agent, 3 days, mean ± std
Description: as §1, §2, §3

[5] = tested on: NCI-H508; test: Cell growth inhibition assay (Cell Titer Glo), NCI-H508; format: cell-based; details: Homo sapiens, 72 h; NCI-H508 colon; BRAF_G596R; PIK3CA_E545K; single agent, 3 days, mean ± std
Description: as §1, §2, §3

[6] = tested on: HOP62; test: Cell growth inhibition assay (Cell Titer Glo), HOP62; format: cell-based; details: Homo sapiens, HOP-62, 72 h; HOP62 lung; KRAS_G12C; PIK3CA/PTEN WT; single agent, 3 days, mean ± std
Description: as §1, §2, §3

[7] = tested on: MDA-MB-175-VII; test: Cell growth inhibition assay (Cell Titer Glo), MDA-MB-175-VII; format: cell-based, Human; details: for IC50: Homo sapiens, 72 h, MDA-MB-175-VII breast, KRAS/RAF WT, PIK3CA/PTEN WT, single agent, 3 days, mean ± std
Description: as §1
as §2, with “plating. Cells were assayed in a 96-well tissue culture plate (NUNC 136102) of RPMI medium containing 10% FBS for all cells at 1,000 cells per well.” for “plating.”
as §3
(§4) Combination effects on potency were evaluated using Combination Index (CI) which was calculated with the back-interpolated IC50 values and the mutually non-exclusive equation derived by Chou and Talalay (1): […]
(§5) The combination effects on the response scale were quantified by Excess Over Highest Single Agent (EOHSA) based on the concept of nonlinear blending as described in detail by Peterson and Novick (2007) and Peterson (2010) [(2;3) [Peterson and Novick, 2007; Peterson, 2010]. […]

[8] = tested on: KM12; test: Cell growth inhibition assay (Cell Titer Glo), KM12; format: cell-based; details: Homo sapiens, 72 h; KM12 colon; KRAS/RAF WT; PTEN_K267*; single agent, 3 days, mean ± std
Description: as §1, §2, §3

[9] = tested on: CaLu3; test: Cell growth inhibition assay (Cell Titer Glo), CaLu3; format: cell-based; details: Homo sapiens, Calu-3, 72 h; CaLu3 lung; KRAS/RAF WT; PIK3CA/PTEN WT; HER2+; single agent, 3 days, mean ± std
Description: as §1, §2, §3

[10] = tested on: NCI-H1155; test: Cell growth inhibition assay (Cell Titer Glo), NCI-H1155; format: cell-based; details: Homo sapiens, 72 h; NCI-H1155 lung; KRAS_Q61H; PTEN_R233*; single agent, 3 days, mean ± std
Description: as §1, §2, §3

[11] = tested on: Colo-205; test: Cell growth inhibition assay (Cell Titer Glo), Colo-205; format: cell-based; details: Homo sapiens, 72 h; Colo-205 colon; BRAF_V600E; PIK3CA/PTEN WT; single agent, 3 days, mean ± std
Description: as §1, §2, §3

[12] = tested on: HT-29; test: Cell growth inhibition assay (Cell Titer Glo), HT-29; format: cell-based; details: Homo sapiens, 72 h; HT-29 colon; BRAF_V600E; PIK3CA_P449T; single agent, 3 days, mean ± std
Description: as §1, §2, §3

[13] = tested on: LS-1034; test: Cell growth inhibition assay (Cell Titer Glo), LS-1034; format: cell-based; details: Homo sapiens, 72 h; LS-1034 colon; KRAS_A146T; PIK3CA/PTEN WT; single agent, 3 days, mean ± std
Description: as §1, §2, §3

[14] = tested on: SW1417; test: Cell growth inhibition assay (Cell Titer Glo), SW1417; format: cell-based; details: Homo sapiens, 72 h; SW1417 colon; BRAF_V600E; PIK3CA/PTEN WT; single agent, 3 days, mean ± std
Description: as §1, §2, §3

[15] = tested on: RKO; test: Cell growth inhibition assay (Cell Titer Glo), RKO; format: cell-based; details: Homo sapiens, 72 h; RKO colon; BRAF_V600E; PIK3CA_H1047R; single agent, 3 days, mean ± std
Description: as §1, §2, §3

[16] = tested on: NCI-H727; test: Cell growth inhibition assay (Cell Titer Glo), NCI-H727; format: cell-based; details: Homo sapiens, 72 h; NCI-H727 lung; KRAS_G12V; PIK3CA/PTEN WT; single agent, 3 days, mean ± std
Description: as §1, §2, §3

[17] = tested on: SW1463; test: Cell growth inhibition assay (Cell Titer Glo), SW1463; format: cell-based; details: Homo sapiens, 72 h; SW1463 colon; KRAS_G12C; PIK3CA/PTEN WT; single agent, 3 days, mean ± std
Description: as §1, §2, §3

[18] = tested on: human lung tumor lines; test: Cell growth inhibition assay, lung tumor lines; format: cell-based; details: COR-L23, A549, NCI-H1355, NCI-H1792, NCI-H23, Calu 6 and MV522, range over the lines, read-out: IC50s, single agent
Description: as §1, §2, §3

[19] = tested on: MV522; test: Cell growth inhibition assay (Cell Titer Glo), MV522; format: cell-based; details: Homo sapiens, 72 h; MV522 lung; BRAF_V600E; PIK3CA/PTEN WT; single agent, 3 days, mean ± std
Description: as §1, §2, §3

[20] = tested on: NCI-H1355; test: Cell growth inhibition assay (Cell Titer Glo), NCI-H1355; format: cell-based; details: Homo sapiens, 72 h; NCI-H1355 lung; KRAS_G13C; PIK3CA/PTEN WT; single agent, 3 days, mean ± std
Description: as §1, §2, §3

[21] = tested on: COR-L23; test: Cell growth inhibition assay (Cell Titer Glo), COR-L23; format: cell-based; details: Homo sapiens, 72 h; COR-L23 lung; KRAS_G12V; PIK3CA/PTEN WT; single agent, 3 days, mean ± std
Description: as §1, §2, §3

[22] = tested on: NCI-H1792; test: Cell growth inhibition assay (Cell Titer Glo), NCI-H1792; format: cell-based; details: Homo sapiens, 72 h; NCI-H1792 lung; KRAS_G12C; PIK3CA/PTEN WT; single agent, 3 days, mean ± std
Description: as §1, §2, §3

[23] = tested on: HCC827; test: Cell growth inhibition assay (Cell Titer Glo), HCC827; format: cell-based; details: Homo sapiens, 72 h; HCC827 lung; KRAS/RAF WT; PIK3CA/PTEN WT; EGFR E746_A750 deletion mutation; single agent, 3 days, mean ± std
Description: as §1, §2, §3

[24] = tested on: SW1573; test: Cell growth inhibition assay (Cell Titer Glo), SW1573; format: cell-based; details: Homo sapiens, 72 h; SW1573 lung; KRAS_G12C; PIK3CA_K111E; single agent, 3 days, mean ± std
Description: as §1, §2, §3

[25] = tested on: SW480; test: Cell growth inhibition assay (Cell Titer Glo), SW480; format: cell-based; details: Homo sapiens, 72 h; SW480 colon; PIK3CA/PTEN WT; single agent, 3 days, mean ± std
Description: as §1, §2, §3

[26] = tested on: human colon tumor lines; test: Cell growth inhibition assay, colon lines; format: cell-based
Description: as §1
as §2, with “plating. Cells were assayed in a 96-well tissue culture plate (NUNC 136102) of RPMI medium containing 10% FBS for all cells at 1,000 cells per well.” for “plating.”
as §3, §4, §5

[27] = tested on: Calu6; test: Cell growth inhibition assay (Cell Titer Glo), Calu6; format: cell-based; details: Homo sapiens, Calu-6, 72 h; Calu6 lung; KRAS_Q61K; PIK3CA/PTEN WT; single agent, 3 days, mean ± std
Description: as §1, §2, §3

[28] = tested on: HCT-8; test: Cell growth inhibition assay (Cell Titer Glo), HCT-8; format: cell-based; details: Homo sapiens, 72 h; HCT-8 colon; KRAS_G13D; PIK3CA_E545K; single agent, 3 days, mean ± std
Description: as §1, §2, §3

[29] = tested on: NCI-H23; test: Cell growth inhibition assay (Cell Titer Glo), NCI-H23; format: cell-based; details: Homo sapiens, 72 h; NCI-H23 lung; KRAS_G12C; PIK3CA/PTEN WT; single agent, 3 days, mean ± std
Description: as §1, §2, §3

[30] = tested on: SW837; test: Cell growth inhibition assay (Cell Titer Glo), SW837; format: cell-based; details: Homo sapiens, 72 h; SW837 colon; KRAS_G12C; PIK3CA/PTEN WT; single agent, 3 days, mean ± std
Description: as §1, §2, §3

[31] = tested on: DLD1; test: Cell growth inhibition assay (Cell Titer Glo), DLD1; format: cell-based; details: Homo sapiens, DLD-1, 72 h; DLD1 colon; KRAS_G13D; PIK3CA_E545K; single agent, 3 days, mean ± std
Description: as §1, §2, §3

IC50 [1] [nM] | IC50 [7] [nM] | IC50 [9] [nM] | IC50 [11] [nM] | IC50 [14] [nM] | IC50 [17] [nM] | IC50 [18] [nM] | IC50 [20] [nM] | IC50 [22] [nM] | IC50 [23] [nM] | IC50 [24] [nM] | IC50 [25] [nM] | IC50 [27] [nM] | Structure (SMILES) | IC50 [2] [nM] | IC50 [4] [nM] | IC50 [6] [nM] | IC50 [8] [nM] | IC50 [13] [nM] | IC50 [15] [nM] | IC50 [21] [nM] | also measured
127 | 96 ± 33 | 158 ± 19 | 1 | 3 ± 1 | 4 ± 3 | 2 to 329 | 52 ± 10 | 53 ± 16 | > 1000 | > 1000 | 37 ± 15 | 4 ± 3 | CC(=O)Nc1cccc(-n2c(=O)n(C3CC3)c(=O)c3c(Nc4ccc(I)cc4F)n(C)c(=O)c(C)c32)c1 [Compound A, N-{3-[3-cyclopropyl-5-(2-fluoro-4-iodo-phenylamino)-6,8-dimethyl-2,4,7-trioxo-3,4,6,7-tetrahydro-2H-pyrido[4,3-d]pyrimidin-1-yl]phenyl}acetamide] | 61 ± 31 | 22 ± 3 | > 1000 | 23 ± 21 | 5 | 18 ± 1 | 329 ± 237 | IC50 [3]: > 1000 nM; IC50 [5]: 23 ± 2 nM; sensitivity as a single agent (in words) ([7]; MDA-MB-175-VII cells): sensitive; IC50 [10]: > 1000 nM; IC50 [12]: 2 ± 1 nM; IC50 [16]: 2 nM; IC50 [19]: 2 ± 1 nM; IC50 ([26]; LS-1034, Colo-205, SW1463, HT29, SW480 and SW1417, read-out: IC50, single agent): ≤ 37 nM; IC50 ([26]; colon lines depicted in Table 1, range over the lines, read-out: IC50s, single agent): 1 to 632 nM; IC50 [28]: 55 ± 11 nM
> 10000 | < 1000 | > 8000 | 2570 ± 137 | > 10000 | 9720 ± 139 | 2000 to 7000 | 6680 ± 3490 | 7310 ± 2870 | > 8000 | > 8000 | > 10000 | 2150 ± 890 | Cn1ncc(Cl)c1-c1cc(C(=O)N[C@H](CN)Cc2cccc(F)c2)sc1Cl [Compound B, N-{(1S)-2-amino-1-[(3-fluorophenyl)methyl]ethyl}-5-chloro-4-(4-chloro-1-methyl-1H-pyrazol-5-yl)-2-thiophenecarboxamide] | > 10000 | > 8000 | > 10000 | 2250 ± 1180 | 4340 ± 1770 | 1810 ± 674 | 5370 ± 3520 | IC50 [29]: 7120 ± 3800 nM; IC50 [30]: > 10000 nM; IC50 [31]: > 10000 nM; IC50 ([26]; a subset of these colon cell lines (modest sensitivity), range over the lines, read-out: IC50 values, single agent): 500 to 5000 nM
